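Test compounds were applied to cells in 96-well plates for 48 hours at 5 doses. GI50 marks 50% less growth.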 The source made the active and inactive calls. Rule as the data show it: active = GI50 up to about 1.1 µM and inactive = higher. *1 amine or outer side, *2 acyl side, *3 side chain or, on linkers, in order; H or OH if unused. Where a SMILES comes first, the peptide text is derived from it. The star is where a group is joined. γGlu = O=C(O)[CH](CCC(=O)[*:2])N[*:1]; NHOH = ON*
What was measured:
Experiment in all cases: NCI anticancer screen, dose series, 48 h
HCT-15 = system: HCT-15
786-0 = system: 786-0
ACHN = system: ACHN
NCI/ADR-RES = system: NCI/ADR-RES
SK-MEL-2 = system: SK-MEL-2
MDA-MB-435 = system: MDA-MB-435
HT-29 = system: HT-29
UACC-257 = system: UACC-257
SF-295 = system: SF-295
SK-MEL-5 = system: SK-MEL-5
SN12C = system: SN12C
SF-539 = system: SF-539
NCI-H23 = system: NCI-H23
DU-145 = system: DU-145
HOP-62 = system: HOP-62
SR = system: SR
HOP-92 = system: HOP-92
SK-MEL-28 = system: SK-MEL-28
SW-620 = system: SW-620
RPMI-8226 = system: RPMI-8226

Row | Structure (SMILES) | GI50 (HCT-15) | GI50 (786-0) | GI50 (ACHN) | GI50 (NCI/ADR-RES) | GI50 (SK-MEL-2) | GI50 (MDA-MB-435) | GI50 (HT-29) | GI50 (UACC-257) | GI50 (SF-295) | GI50 (SK-MEL-5) | GI50 (SN12C) | GI50 (SF-539) | GI50 (NCI-H23) | GI50 (DU-145) | GI50 (HOP-62) | GI50 (SR) | GI50 (HOP-92) | GI50 (SK-MEL-28) | GI50 (SW-620) | GI50 (RPMI-8226)
1 | O=C1Oc2ccccc2N/C1=C/C(=O)c1ccc(Cl)cc1 | > 100 µM | > 100 µM (inactive) | > 100 µM (inactive) | 39 µM (inactive) | > 100 µM (inactive) | 61.4 µM (inactive) | > 100 µM (inactive) | > 100 µM (inactive) | 51.4 µM (inactive) | 38.6 µM (inactive) | > 100 µM (inactive) | 46.9 µM (inactive) | > 100 µM (inactive) | > 100 µM (inactive) | > 100 µM (inactive) | 39.4 µM (inactive) | – | – | – | –
2 | C=CC[C@@]1(C(=O)OC)[C@H](Sc2ccccc2)C1(C)C | 31 µM | 33.4 µM (inactive) | > 100 µM (inactive) | 44.9 µM (inactive) | 24.2 µM (inactive) | 30.9 µM (inactive) | 24.9 µM (inactive) | 34 µM (inactive) | 36.1 µM (inactive) | 18.7 µM (inactive) | 21.1 µM (inactive) | 35.3 µM (inactive) | 23.2 µM (inactive) | 67.9 µM (inactive) | > 100 µM (inactive) | – | 13.8 µM (inactive) | 78.2 µM (inactive) | 61.4 µM (inactive) | 10.7 µM (inactive)
3 | CC(C)(C)c1cc(C(CO)OCCOCCO)cc(C(C)(C)C)c1O (configuration not stated) | > 100 µM | > 100 µM (inactive) | > 100 µM (inactive) | > 100 µM (inactive) | > 100 µM (inactive) | > 100 µM (inactive) | > 100 µM (inactive) | > 100 µM (inactive) | > 100 µM (inactive) | > 100 µM (inactive) | > 100 µM (inactive) | > 100 µM (inactive) | > 100 µM (inactive) | > 100 µM (inactive) | > 100 µM (inactive) | – | > 100 µM (inactive) | > 100 µM (inactive) | > 100 µM (inactive) | > 100 µM (inactive)
4 | CNc1ccc2nc(-c3ccc(OC(=O)N(C)C)cc3)cn2c1 | 19.5 µM | 14.5 µM (inactive) | 19.2 µM (inactive) | 23.3 µM (inactive) | 14 µM (inactive) | 17 µM (inactive) | 17.7 µM (inactive) | 50.4 µM (inactive) | 17.7 µM (inactive) | 23.1 µM (inactive) | 14.1 µM (inactive) | – | 21.2 µM (inactive) | 24.3 µM (inactive) | 18.8 µM (inactive) | 19.1 µM (inactive) | 22.6 µM (inactive) | 45.8 µM (inactive) | 22.8 µM (inactive) | –
5 | COc1ccc(C(=O)CCN(C)C)c2ccccc12 | 21.4 µM | 5.93 µM (inactive) | 18.3 µM (inactive) | 35.9 µM (inactive) | 19.5 µM (inactive) | 19.5 µM (inactive) | 25.7 µM (inactive) | > 40.9 µM (inactive) | > 100 µM (inactive) | > 56.8 µM (inactive) | 21.5 µM (inactive) | 14.9 µM (inactive) | 20.8 µM (inactive) | 28.2 µM (inactive) | 24.1 µM (inactive) | – | 19.5 µM (inactive) | 24.8 µM (inactive) | 18 µM (inactive) | 0.504 µM (active)
6 | COCC(=O)[C@]1(O)Cc2c(O)c3c(c(O)c2[C@@H](OC2CC(N)C(O)C(C)O2)C1)C(=O)c1c(OC)cccc1C3=O (some centres not stated) | 0.137 µM | 0.0373 µM (active) | 0.0703 µM (active) | – | 0.121 µM (active) | 0.188 µM (active) | 0.0192 µM (active) | 0.299 µM (active) | 0.0296 µM (active) | 0.0728 µM (active) | 0.0285 µM (active) | 0.043 µM (active) | 0.0536 µM (active) | 0.0991 µM (active) | 0.11 µM (active) | < 0.0138 µM (active) | 0.13 µM (active) | 0.0935 µM (active) | 0.0209 µM (active) | 0.08 µM (active)
7 | Cc1c2cnccc2c(C)c2c1[nH]c1ccc(O)cc12 | 0.971 µM | 0.241 µM (active) | 1.32 µM (inactive) | 0.693 µM (active) | 6.25 µM (inactive) | 1.78 µM (inactive) | 1.51 µM (inactive) | 2.73 µM (inactive) | 1.06 µM (active) | > 10 µM (inactive) | 1.12 µM (inactive) | 1.07 µM (active) | 1.57 µM (inactive) | 1.64 µM (inactive) | 1.02 µM (active) | 0.31 µM (active) | – | 3.01 µM (inactive) | 0.989 µM (active) | 1.59 µM (inactive)
8 | CCOC(=O)C(NC(=O)Nc1ccccc1F)(OC)C(F)(F)F (configuration not stated) | > 100 µM | > 100 µM (inactive) | > 100 µM (inactive) | > 100 µM (inactive) | > 100 µM (inactive) | > 100 µM (inactive) | > 100 µM (inactive) | > 100 µM (inactive) | – | > 100 µM (inactive) | > 100 µM (inactive) | > 100 µM (inactive) | > 100 µM (inactive) | – | – | > 100 µM (inactive) | – | > 100 µM (inactive) | > 100 µM (inactive) | > 100 µM (inactive)
9 | Cc1nnc(N)s/c1=N/O | > 100 µM | > 100 µM (inactive) | > 100 µM (inactive) | > 100 µM (inactive) | > 100 µM (inactive) | > 100 µM (inactive) | > 100 µM (inactive) | 56.9 µM (inactive) | > 100 µM (inactive) | 56.9 µM (inactive) | > 100 µM (inactive) | > 100 µM (inactive) | > 100 µM (inactive) | > 100 µM (inactive) | > 100 µM (inactive) | – | > 100 µM (inactive) | > 100 µM (inactive) | > 100 µM (inactive) | > 100 µM (inactive)
10 | CC(=O)OCC1OC(OC2CC3C(C)(C)C(OC(C)=O)CC[C@]3(C)C3CCC45CC4(CCC5[C@@H](C)C[C@H](O)C(O)C(C)(C)O)[C@]23C)C(O)C(O)C1O (some centres not stated) | > 10 µM | > 10 µM (inactive) | > 10 µM (inactive) | > 10 µM (inactive) | 5.65 µM (inactive) | > 10 µM (inactive) | > 10 µM (inactive) | > 10 µM (inactive) | > 10 µM (inactive) | > 10 µM (inactive) | > 10 µM (inactive) | > 10 µM (inactive) | > 10 µM (inactive) | > 10 µM (inactive) | > 10 µM (inactive) | – | 9.44 µM (inactive) | > 10 µM (inactive) | > 10 µM (inactive) | 5.18 µM (inactive)
11 | NC(CCC(=O)NC(CCC(=O)NO)C(=O)NCC(=O)O)C(=O)O (configuration not stated) (γGlu-Glu(NHOH)-Gly-OH; configuration not given here) | > 100 µM | > 100 µM (inactive) | > 100 µM (inactive) | > 100 µM (inactive) | > 100 µM (inactive) | > 100 µM (inactive) | > 100 µM (inactive) | > 100 µM (inactive) | > 100 µM (inactive) | > 100 µM (inactive) | > 100 µM (inactive) | > 100 µM (inactive) | > 100 µM (inactive) | > 100 µM (inactive) | > 100 µM (inactive) | – | > 100 µM (inactive) | > 100 µM (inactive) | > 100 µM (inactive) | > 100 µM (inactive)

Reference: ChEMBL document CHEMBL1201862, “PubChem BioAssay data set” (2004)
